Measured values reported in patent publication US20240002397A1, “3-AMINO PYRROLIDINE AND PIPERIDINE MACROCYCLIC OREXIN RECEPTOR AGONISTS” (Merck Sharp & Dohme LLC, priority 2020, published 2024).

Molecular target: T1, human OX2R (Homo sapiens, UniProt O43614)
T1 sequence (O43614 1-444): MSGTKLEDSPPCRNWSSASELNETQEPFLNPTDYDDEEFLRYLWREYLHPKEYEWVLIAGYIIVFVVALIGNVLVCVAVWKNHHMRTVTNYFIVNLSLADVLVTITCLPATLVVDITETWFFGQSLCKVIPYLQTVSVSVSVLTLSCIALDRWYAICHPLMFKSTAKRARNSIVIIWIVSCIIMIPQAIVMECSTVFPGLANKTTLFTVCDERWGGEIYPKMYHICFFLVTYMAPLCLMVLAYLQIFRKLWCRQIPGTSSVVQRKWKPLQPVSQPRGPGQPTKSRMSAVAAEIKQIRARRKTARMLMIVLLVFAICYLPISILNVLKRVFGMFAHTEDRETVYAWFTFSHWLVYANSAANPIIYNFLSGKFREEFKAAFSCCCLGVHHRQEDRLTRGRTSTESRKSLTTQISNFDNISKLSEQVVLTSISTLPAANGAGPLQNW
Test: IPOne (IP-1) orexin receptor agonist assay in CHO cells expressing human OX2R
Conditions: CHO, hOX2R IP-One; percentage of mean max effect of a reference compound at 1 uM with 100% activity
Description: In atypical experiment, the OX1 and OX2 receptor agonist activity is determined in accordance with the following general experimental method. Chinese hamster ovary (CHO) cells expressing human OX1R and/or the human OX2R were grown in Iscove's modified DMEM containing glutaMAX™, 1% G418, 100 U/mL penicillin, 100 μg/mL streptomycin and 10% heat-inactivated qualified fetal bovine serum (FBS). […] During this incubation, IP-one detection reagents were prepared (38:1:1 lysis buffer:D2:AB-cryptate reagents).
For each compound, data were fit to a four parameter logistic fit (ActivityBase software) and the EC50 was reported as the inflection point of the resulting curve.

SMILES | Emax [%]
COc1cc2nc(c1F)OCCCOC(=O)N1C(COC3CCC2CC3)[C@@H](NS(C)(=O)=O)C[C@H]1C (stereo partly drawn) [Example 75, N-((2^1S,2^4S,5^2R,5^3S,5^5R)-1^4-fluoro-1^3-methoxy-5^5-methyl-6-oxo-3,7,11-trioxa-1(2,6)-pyridina-5(2,1)-pyrrolidina-2(1,4)-cyclohexanacycloundecaphane-5^3-yl)methane sulfonamide] | 97.2
C[C@@H]1C[C@H](NS(=O)(=O)N(C)C)[C@@H]2COC3CCC(CC3)c3cccc(c3)CCCCOC(=O)N12 [Example 22, N′-((2^1S,2^4S,5^2R,5^3S,5^5R)-5^5-methyl-6-oxo-3,7-dioxa-5(2,1)-pyrrolidina-1(1,3)-benzena-2(1,4)-cyclohexanacycloundecaphane-5^3-yl)-N,N-dimethysulfamide] | 102
C[C@@H]1C[C@H](NS(C)(=O)=O)C2COC3CCC(CC3)c3nc(c(F)cc3F)OCCCOC(=O)N21 (stereo partly drawn) [Example 81, N-((2^1S,2^4S,5^2R,5^3S,5^5R)-1^3,1^5-difluoro-5^5-methyl-6-oxo-3,7,11-trioxa-1(2,6)-pyridina-5(2,1)-pyrrolidina-2(1,4)-cyclohexanacycloundecaphane-5^3-yl)methanesulfonamide] | 104
CS(=O)(=O)N[C@H]1C[C@@H](CO)N2C(=O)OCCOc3ccc(C(F)(F)F)c(n3)[C@H]3CC[C@H](CC3)OC[C@@H]12 [Example 96, N-((2^1R,2^4R,5^2R,5^3S,5^5S)-5^5-(hydroxymethyl)-6-oxo-1^3-(trifluoromethyl)-3,7,10-trioxa-1(2,6)-pyridina-5(2,1)-pyrrolidina-2(1,4)-cyclohexanacyclodecaphane-5^3-yl)methanesulfonamide] | 100
C[C@@H]1C[C@H](NS(C)(=O)=O)C2COC3CCC(CC3)c3ccc(F)c(n3)NCCCOC(=O)N21 (stereo partly drawn) [Example 93, N-((2^1S,2^4S,5^2R,5^3S,5^5R)-1^5-fluoro-5^5-methyl-6-oxo-3,7-dioxa-11-aza-1(2,6)-pyridina-5(2,1)-pyrrolidina-2(1,4)-cyclohexanacycloundecaphane-5^3-yl)methanesulfonamide] | 103
C[C@@H]1C[C@H](NS(C)(=O)=O)C2COC3CCC(CC3)c3cccc(c3)OCCOC(=O)N21 (stereo partly drawn) [Example 17, N-((2^1S,2^4S, 5^2R,5^3S,5^5R)-5^5-methyl-6-oxo-3,7,10-trioxa-5(2,1)-pyrrolidina-1(1,3)-benzena-2(1,4)-cyclohexana-cyclodecaphane-5^3-yl) methanesulfonamide] | 100
C[C@@H]1C[C@H](NS(C)(=O)=O)C2COC3CCC(CC3)c3cccc(c3)OCCCC(=O)N21 (stereo partly drawn) [Example 20, N-((2^1S,2^4S, 5^2R,5^3S,5^5R)-5^5-methyl-6-oxo-3,10-dioxa-5(2,1)-pyrrolidina-1(1,3)-benzena-2(1,4)-cyclohexana-cyclodecaphane-5^3-yl) methanesulfonamide] | 101
C[C@@H]1C[C@H](NS(C)(=O)=O)C2COC3CCC(CC3)c3ccc(C(F)(F)F)c(n3)OCCCOC(=O)N21 (stereo partly drawn) [Example 65, N-((2^1S,2^4S,5^2R,5^3S,5^5R)-5^5-methyl-6-oxo-1^5-(trifluoromethyl)-3,7,11-trioxa-1(2,6)-pyridina-5(2,1)-pyrrolidina-2(1,4)-cyclohexanacycloundecaphane-5^3-yl)methanesulfonamide] | 103
C[C@@H]1C[C@H](NS(C)(=O)=O)C2COC3CCC(CC3)c3nc(ccc3OC(F)(F)F)OCCCOC(=O)N21 (stereo partly drawn) [Example 59, N-((2^1S,2^4S,5^2R,5^3S,5^5R)-5^5-methyl-6-oxo-1^3-(trifluoromethoxy)-3,7,11-trioxa-1(2,6)-pyridina-5(2,1)-pyrrolidina-2(1,4)-cyclohexanacycloundecaphane-5^3-yl)methanesulfonamide] | 96.9
CN(C)S(=O)(=O)N[C@H]1CCN2C(=O)CCCCOc3cccc(c3)[C@H]3CC[C@H](CC3)OC[C@@H]12 [Example 7, N′-((2^1S,2^4S,5^2R,5^3S)-6-oxo-3,11-dioxa-5(2,1)-pyrrolidina-1(1,3)-benzena-2(1,4)-cyclohexanacycloundecaphane-5^3-yl)-N,N-dimethyl-sulfamide] | 104
C[C@@H]1C[C@H](NS(C)(=O)=O)C2COC3CCC(CC3)c3ccc(C#N)c(c3)OCCCOC(=O)N21 (stereo partly drawn) [Example 45, N-((2^1S,2^4S, 5^2R,5^3S,5^5R)-1^4-cyano-5^5-methyl-6-oxo-3,7,11-trioxa-5(2,1)-pyrrolidina-1(1,3)-benzena-2(1,4)-cyclohexana-cyclounde-caphane-5^3-yl)methane-sulfonamide] | 103
COC[C@@H]1C[C@H](NS(C)(=O)=O)[C@@H]2COC3CCC(CC3)c3cccc(F)c3/C=C/OC(=O)N12 [Example 3, N-((2^1R,2^4R,5^2R,5^3S,5^5S,E)-1^3-fluoro-5^5-(methoxymethyl)-6-oxo-3,7-dioxa-5(2,1)-pyrrolidina-1(1,2)-benzena-2(1,4)-cyclohexanacyclonaphan-8-en-5^3-yl)methanesulfonamide] | 99.5
C[C@@H]1C[C@H](NS(C)(=O)=O)C2COC3CCC(CC3)c3cc(ccc3OC(F)(F)F)OCCOC(=O)N21 (stereo partly drawn) [Example 53, N-((2^1S,2^4S,5^2R,5^3S,5^5R)-5^5-methyl-6-oxo-16-(trifluoromethoxy)-3,7,10-trioxa-5(2,1)-pyrrolidina-1(1,3)-benzena-2(1,4)-cyclohexanacyclodecaphane-5^3-yl)methanesulfonamide] | 103
C[C@@H]1C[C@H](NS(C)(=O)=O)C2COC3CCC(CC3)c3cc(cc(C(F)(F)F)c3)OCCCOC(=O)N21 (stereo partly drawn) [Example 49, N-((2^1S,2^4S, 5^2R,5^3S,5^5R)-5^5-methyl-6-oxo-1^5-(trifluoro-methyl)-3,7,11-trioxa-5(2,1)-pyrrolidina-1(1,3)-benzena-2(1,4)-cyclohexana-cyclounde-caphane-5^3-yl)methane-sulfonamide] | 101
CS(=O)(=O)N[C@H]1CCCN2C(=O)/C=C/CCOc3cccc(c3)C3CCC(CC3)OC[C@@H]12 [Example 28, N-((2^1S,2^4S,5^2R,5^3S,E)-6-oxo-3,11-dioxa-5(2,1)-piperidina-1(1,3)-benzena-2(1,4)-cyclohexanacycloundecaphan-7-en-5^3-yl)methanesulfonamide] | 102
CS(=O)(=O)N[C@H]1C[C@@H](CC(N)=O)N2C(=O)OCCOc3ccc(C(F)(F)F)c(n3)C3CCC(CC3)OCC12 (stereo partly drawn) [Example 99, 2-((2^1R,2^4R,5^2R,5^3S,5^5S)-5^3-(methylsulfonamido)-6-oxo-1^3-(trifluoromethyl)-3,7,10-trioxa-1(2,6)-pyridina-5(2,1)-pyrrolidina-2(1,4)-cyclohexanacyclodecaphane-5^5-yl)acetamide] | 100
COc1cc2nc(c1)C1CCC(CC1)OCC1[C@@H](NS(=O)(=O)CF)C[C@@H](C)N1C(=O)OCCO2 (stereo partly drawn) [Example 104, 1-fluoro-N-((2^1R,2^4R,5^2R,5^3S,5^5R)-1^4-methoxy-5^5-methyl-6-oxo-3,7,10-trioxa-1(2, 6)-pyridina-5(2,1)-pyrro-lidina-2(1,4)-cyclohexana-cyclodecaphane-5^3-yl)methanesulfonamide] | 102
C[C@@H]1C[C@H](NS(C)(=O)=O)C2COC3CCC(CC3)c3ccc(F)c(n3)NCCOC(=O)N21 (stereo partly drawn) [Example 92, N-((2^1S,2^4S,5^2R,5^3S,5^5R)-1^5-fluoro-5^5-methyl-6-oxo-3,7-dioxa-10-aza-1(2,6)-pyridina-5(2,1)-pyrrolidina-2(1,4)-cyclohexanacyclodecaphane-5^3-yl)methanesulfonamide] | 98.9
C[C@@H]1C[C@H](NS(=O)(=O)N(C)C)[C@@H]2COC3CCC(CC3)c3cccc(c3)OCCCCCC(=O)N12 [Example 8, N′-((2^1S,2^4S,5^2R,5^3S,5^5R)-5^5-methyl-6-oxo-3,12-dioxa-5(2,1)-pyrrolidina-1(1,3)-benzena-2(1,4)-cyclohexanacyclododecaphane-5^3-yl)-N,N-dimethyl-sulfamide] | 100
C[C@@H]1C[C@H](NS(=O)(=O)N(C)C)[C@@H]2COC3CCC(CC3)c3cccc(c3)OCCCCC(=O)N12 [Example 10, N′-((2^1S,2^4S,5^2R,5^3S, 5^5R)-5^5-methyl-6-oxo-3,11-dioxa-5(2,1)-pyrrolidina-1(1,3)-benzena-2(1,4)-cyclohexanacycloundecaphane-5^3-yl)-N,N-dimethyl-sulfamide] | 101

Same assay, conditions: hOX2R IP-One; percentage of mean max effect of a reference compound at 1 uM with 100% activity

SMILES | Emax (%)
CS(=O)(=O)NC1CCCN2C(=O)CCCOc3cccc(c3)C3CCC(C3)OCC12 (stereo not drawn) [Example 33, N-((2^1S,2^3R,5^2R,5^3S)-6-oxo-3,10-dioxa-5(2,1)-piperidina-1(1,3)-benzena-2(1,3)-cyclopentanacyclodecaphane-5^3-yl)methanesulfonamide] | −3.9
CC1CC(NS(=O)(=O)N(C)C)C2COC3CCC(CC3)c3cccc(c3)OCCCOC(=O)N12 (stereo not drawn) [Example 13] | 99.3
CS(=O)(=O)NC1CCCN2C(=O)CCCOc3cccc(c3)C3CCC(C3)OCC12 (single isomer, unassigned) [Example 36, N-((2^1S,2^3R,5^2R,5^3S)-6-oxo-3,10-dioxa-5(2,1)-piperidina-1(1,3)-benzena-2(1,3)-cyclopentanacyclodecaphane-5^3-yl)methanesulfonamide] | 103.3
CN(C)S(=O)(=O)NC1CCCN2C(=O)OCCc3ccccc3C3CCC(CC3)OCC12 (single isomer, unassigned) [Example 40, N′-((2^1S,2^4S,5^2R,5^3S)-6-oxo-3,7-dioxa-5(2,1)-piperidina-1(1,2)-benzena-2(1,4)-cyclohexanacyclononaphane-5^3-yl)-N,N-dimethyl-sulfamide] | 71.6
